Data as given in publication PMC11758220, “Identification of a Privileged Scaffold for Inhibition of Sterol Transport Proteins through the Synthesis and Ring Distortion of Diverse, Pseudo-Natural Products” (ACS Central Science, 2025).

Legend:
STARD4 = biological target: T1, STARD4 (Homo sapiens, UniProt Q96DR4, C75S); assay: Differential scanning fluorimetry (DSF), STARD4; assay type: binding; conditions: for STARD4 (DSF) ΔTm / ΔTm at 10 µM: single dose, Dose = 10 µM; for Kd: apparent Kd, mean of three experiments run in technical duplicates, read-out: STARD4 Kd,app (DSF); for STARD4 (DSF) ΔTmmax: maximal thermal shift
T1 construct: STARD4(2-205; C75S); made in house; host or cells: E. coli BL21(DE3)
T1 sequence (Q96DR4 2-205 C75S): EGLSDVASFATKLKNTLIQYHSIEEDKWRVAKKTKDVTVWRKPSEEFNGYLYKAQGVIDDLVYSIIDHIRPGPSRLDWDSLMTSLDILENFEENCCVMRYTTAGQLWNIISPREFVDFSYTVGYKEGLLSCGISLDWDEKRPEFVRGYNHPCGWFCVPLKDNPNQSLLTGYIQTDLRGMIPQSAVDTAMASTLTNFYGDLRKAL
Description: (§1) Protein expression constructs
(§2) Human ASTER domains of Aster-A(359-547), -B(364-552) and -C(318-504) were subcloned into a pGEX-6p-2rbs vector, thus introducing the cloning artifact ‘GPLGS’.3 The pGEX-6P-1-GST-OSBP(377- […]
(§3) a gift from James H. Hurley (University of California).4 The pHIS_2His6_Thrombin_STARD4(2-205;C75S) plasmid was a gift from Young Jun Im (Chonnam National University).5 STARD5A was a gift from Nicola Burgess-Brown (Addgene plasmid #42392; http://n2t.net/addgene:42392; […]
(§4) Protein expression and purification […]
(§5) vectors including an N-terminal PreScission-cleavable glutathione S-transferase (GST)-tag were expressed in Escherichia coli (E. coli) OverExpress C41 in Terrific Broth (TB) medium for 16 h at 18 °C after the induction with 0.1 mM isopropyl β-D-1-thiogalactopyranoside (IPTG). Cells were harvested at 3500 × g for 15 minutes and lysed by sonication in buffer containing 50 mM HEPES pH 7.5, 300 mM NaCl, 10 %v/v glycerol, 5 mM dithiothreitol (DTT), 0.1 %v/v Triton X-100 and protease inhibitor mix HP plus (Serva). The lysate was purified by affinity chromatography on a GSTrap FF column (Cytiva) using an ÄKTA Start (Cytiva) in buffer containing 50 mM HEPES pH 7.5, 300 mM NaCl, 10 %v/v glycerol, 5 mM DTT and 0.01 %v/v Triton X-100. The GST-tag was cleaved overnight on the column at 4 °C. The Aster sterol binding domains were further purified by size-exclusion chromatography (SEC) on a HiLoad 16/600 Superdex 75 pg (Cytiva) in buffer containing 20 mM HEPES pH 7.5, 300 mM NaCl, 10 %v/v […]
(§6) STARD5(6-213) harboring an N-terminal His6-Tag were expressed in E. coli BL21(DE3) in Luria-Bertani Broth (LB) medium for approximately 16 h at 18 °C after induction with 0.15 mM IPTG. Cells were harvested at 3500 × g for 15 minutes and lysed by sonication in buffer containing 50 mM HEPES pH 7.5, 150 mM NaCl, 5 %v/v glycerol, 5 mM DTT, 0.1 %v/v Triton X -100 and ethylenediaminetetraacetic acid (EDTA)-free protease inhibitor cocktail (Sigma-Aldrich). The cleared lysate was purified by affinity chromatography on a Ni-NTA Superflow Cartridge (Qiagen) using an ÄKTA Start (Cytiva) in buffer containing 50 mM HEPES pH 7.5, 150 mM NaCl, 5 %v/v glycerol, 5 mM DTT. START domains were eluted by using elution buffer containing 50 mM HEPES pH 7.5, 150 mM NaCl, 5 %v/v glycerol, 5 mM DTT and 500 mM imidazole. Proteins were further purified by SEC on a HiLoad 16/600 Superdex 75 pg (Cytiva) in buffer containing 20 mM HEPES pH 7.5, 150 mM NaCl, 5 %v/v glycerol and 2 mM DTT.
(§7) The ORP domain of human OSBP(377-807) in the pGEX-6p-1 vector with an N-terminal PreScission-cleavable GST-tag was expressed in E. coli OverExpress C41 in LB medium for 16 h at 18 °C after induction with 0.1 mM IPTG. Cells were harvested at 3500 × g for 15 minutes and lysed by sonication in buffer containing 20 mM HEPES pH 7.5, 300 mM NaCl, 10 %v/v glycerol, 5 mM DTT, 0.1 %v/v Triton X-100 and EDTA-free protease inhibitor cocktail (Sigma-Aldrich). The cleared lysate was purified by affinity chromatography on a GSTrap HF column (Cytiva) using an ÄKTA Start (Cytiva) in buffer containing 20 mM HEPES pH 7.5, 300 mM NaCl, 10 %v/v glycerol, 5 mM DTT. OSBP(377 -807) was eluted by using elution buffer containing 20 mM HEPES pH 7.5, 300 mM NaCl, 10 %v/v glycerol, 5 mM DTT and 10 mM reduced glutathione. Proteins were further purified by SEC on a HiLoad 16/600 Superdex 75 pg (Cytiva) using an ÄKTA Explorer (Cytiva) in buffer containing 20 mM HEPES pH 7.5, 150 mM NaCl, 10 %v/v glycerol and 2 mM DTT.
(§8) The ORP domains of human ORP1(534-950) in pET24b(+) and ORP2(49-480) in the pET24b(+) vector including an N-terminal His6-Tag were expressed in E. coli BL21(DE3) in TB medium for approximately 16 h at 18 °C after induction with 0.1 mM IPTG. Cells were collected at 3500 × g for 15 minutes and lysed by sonification in buffer containing 10 mM Tris-HCl pH 8, 300 mM NaCl, 5 % glycerol, 2 mM DTT, 0.1 % Triton X-100 and EDTA-free protease inhibitor cocktail (Sigma-Aldrich). The cleared […]

OSBP = biological target: T2, OSBP (Homo sapiens, UniProt P22059); assay: Fluorescence polarisation (FP) competition with NBD-cholesterol, OSBP; assay type: binding; conditions: single dose; for OSBP (FP) inhibition: Dose = 10 µM
T2 construct: OSBP(377-807); host or cells: E. coli OverExpress C41
T2 sequence (P22059 377-807): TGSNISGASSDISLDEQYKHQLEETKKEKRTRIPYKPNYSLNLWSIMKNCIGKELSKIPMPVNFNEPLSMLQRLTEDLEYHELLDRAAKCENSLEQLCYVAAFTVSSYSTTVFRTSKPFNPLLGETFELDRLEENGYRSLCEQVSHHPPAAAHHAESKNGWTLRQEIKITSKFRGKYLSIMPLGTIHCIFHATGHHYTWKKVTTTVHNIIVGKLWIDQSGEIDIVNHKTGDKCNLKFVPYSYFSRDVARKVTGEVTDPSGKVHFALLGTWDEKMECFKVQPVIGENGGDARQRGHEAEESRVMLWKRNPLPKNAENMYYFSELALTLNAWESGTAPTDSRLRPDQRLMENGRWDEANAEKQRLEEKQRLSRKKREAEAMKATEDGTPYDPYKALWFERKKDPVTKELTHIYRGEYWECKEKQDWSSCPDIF
Description: as §1, §2, §3, §4, §5, §6, §7, §8

| SMILES | STARD4 (DSF) ΔTm (STARD4) [°C] | OSBP (FP) inhibition (OSBP) [%] | ΔTm at 10 µM (STARD4) [°C] | inhibition at 10 µM (OSBP) [%] | Kd (STARD4) [µM] | STARD4 (DSF) ΔTmmax (STARD4) [°C] |
| --- | --- | --- | --- | --- | --- | --- |
| C[C@]12CC[C@@H](O)C[C@H]1CCc1c2[nH]c2ccc(Cl)cc12 [Compound 10c] | 0.284 | -10.0 |  |  |  |  |
| C[C@]12CC[C@@H](O)C[C@H]1CCc1c2[nH]c2ccc(F)cc12 [Compound 10d] | 0.167 | -7.0 |  |  |  |  |
| Cc1ccc2[nH]c3c(c2c1)CC[C@@H]1C[C@H](O)CC[C@]31C [Compound 10e] |  |  | 0.284 | -1.3 |  |  |
| COc1ccc2[nH]c3c(c2c1)CC[C@@H]1C[C@H](O)CC[C@]31C [Compound 10f] |  |  | 0.0284 | -6.7 |  |  |
| CC12CCC(O)CC1CCc1c2[nH]c2ccc(C(F)(F)F)cc12 (centres unmarked) [Compound 10g] |  |  | 0.00665 | -8 |  |  |
| C[C@]12CC[C@@H](O)C[C@H]1CCc1c2[nH]c2ccc(I)cc12 [Compound 10h] | -0.0169 | 18.7 |  |  |  |  |
| C[C@]12CC[C@@H](O)C[C@H]1CCc1c2[nH]c2c(F)cc(Cl)cc12 [Compound 10i] |  |  | 0.441 | -9.3 |  |  |
| Cc1cc(C)c2c3c([nH]c2c1)[C@@]1(C)CC[C@@H](O)C[C@H]1CC3 [Compound 10j] |  |  | -0.144 | -16 |  |  |
| CCOC(=O)c1ccc2[nH]c3c(c2c1)CC[C@@H]1C[C@H](O)CC[C@]31C [Compound 10k] | -0.04 | 2.0 |  |  |  |  |
| C[C@]12CC[C@@H](O)C[C@H]1CCC(=O)c1ccccc1NC2=O [Compound 11a] | -0.0281 | 2.7 |  |  |  |  |
| C[C@]12CC[C@@H](O)C[C@H]1CCC(=O)c1cc(Br)ccc1NC2=O [Compound 11b] |  |  | 0.126 | 12 |  |  |
| Cc1ccc2c(c1)C(=O)CC[C@@H]1C[C@H](O)CC[C@]1(C)C(=O)N2 [Compound 11c] |  |  | -0.0446 | 18.7 |  |  |
| COc1ccc2c(c1)C(=O)CC[C@@H]1C[C@H](O)CC[C@]1(C)C(=O)N2 [Compound 11d] |  |  | -0.0249 | -5.3 |  |  |
| C[C@]12CC[C@@H](O)C[C@H]1CCC(=O)c1cc(C(F)(F)F)ccc1NC2=O [Compound 11e] |  |  | -0.0316 | 15 |  |  |
| C[C@]12CC[C@@H](O)C[C@H]1CCC(=O)c1cc(Cl)cc(F)c1NC2=O [Compound 11f] | -0.0242 | 9.0 |  |  |  |  |
| Cc1cc(C)c2c(c1)NC(=O)[C@@]1(C)CC[C@@H](O)C[C@H]1CCC2=O [Compound 11g] |  |  | 0.464 | -5.3 |  |  |

| SMILES | STARD4 (DSF) ΔTm (STARD4) [°C] | OSBP (FP) inhibition (OSBP) [%] | ΔTm at 10 µM (STARD4) [°C] | inhibition at 10 µM (OSBP) [%] | Kd (STARD4) [µM] | STARD4 (DSF) ΔTmmax (STARD4) [°C] |
| --- | --- | --- | --- | --- | --- | --- |
| Cc1ccc2[nH]c3c(c(=O)c2c1)C[C@@H]1C[C@H](O)CC[C@]31C [Compound 12] |  |  | -0.0238 | 2 |  |  |
| Cc1ccc2c(c1)[C@]1(O)CC[C@@H]3C[C@H](O)CC[C@]3(C)C1=N2 [Compound 14a] |  |  | 0.8 | 17.3 |  |  |
| COc1ccc2c(c1)[C@]1(O)CC[C@@H]3C[C@H](O)CC[C@]3(C)C1=N2 [Compound 14b] |  |  | -0.1 | 9.3 |  |  |
| Cc1cc(C)c2c(c1)N=C1[C@@]2(O)CC[C@@H]2C[C@H](O)CC[C@]12C [Compound 14c] |  |  | -0.0123 | 2.7 |  |  |
| C[C@]12CC[C@@H]3C[C@H]1CC[C@@]21C(=Nc2ccccc21)O3 [Compound 15a] |  |  | 0.9 | 0 |  |  |
| CC12CCC3CC1CCC21C(=Nc2ccc(Cl)cc21)O3 (centres unmarked) [Compound 15c] |  |  | 1.5 | 3 |  |  |
| C[C@]12CC[C@@H]3C[C@H]1CC[C@@]21C(=Nc2ccc(F)cc21)O3 [Compound 15d] |  |  | 1.3 | 2.5 |  |  |
| Cc1ccc2c(c1)[C@@]13CC[C@@H]4C[C@@H](CC[C@@]41C)OC3=N2 [Compound 15e] |  |  | 2.1 | 5 | 6.18 | 2.4 |
| COc1ccc2c(c1)[C@@]13CC[C@@H]4C[C@@H](CC[C@@]41C)OC3=N2 [Compound 15f] |  |  | 2.1 | 10 |  |  |
| C[C@]12CC[C@@H]3C[C@H]1CC[C@@]21C(=Nc2ccc(C(F)(F)F)cc21)O3 [Compound 15g] |  |  | 1 | 16 |  |  |
| CC12CCC3CC1CCC21C(=Nc2c(Br)cc(C(F)(F)F)cc21)O3 (centres unmarked) [Compound 15h] |  |  | 0.106 | 10 |  |  |
| C[C@]12CC[C@@H]3C[C@H]1CC[C@@]21C(=Nc2c(F)cc(Cl)cc21)O3 [Compound 15i] |  |  | 1 | 8.3 |  |  |
| CC12CCC3CC1CCC21C(=Nc2ccc(NCc4ccccc4)cc21)O3 (centres unmarked) [Compound 19b] |  |  | 3.7 | 23 | 3.48 | 7.3 |
| CCCCCNc1ccc2c(c1)[C@@]13CC[C@@H]4C[C@@H](CC[C@@]41C)OC3=N2 [Compound 19c] |  |  | 4.5 | 18.6 | 4.06 | 7.2 |
| CCCCN(C)c1ccc2c(c1)[C@@]13CC[C@@H]4C[C@@H](CC[C@@]41C)OC3=N2 [Compound 19d] |  |  | 3.9 | 49 | 4.53 | 5.2 |
| CC(C)(C)OC(=O)N1CCN(c2ccc3c(c2)C24CCC5CC(CCC52C)OC4=N3)CC1 (centres unmarked) [Compound 19e] |  |  | 6.6 | 17.2 | 2.86 | 8.9 |
